Results on one molecule are retold here after publication PMC6934184, “Selective DNA-PKcs inhibition extends the therapeutic index of localized radiotherapy and chemotherapy” (The Journal of Clinical Investigation, 2019).

The target in this assay is T1, CAMK2B (CaMKII beta) (Homo sapiens, UniProt Q13554).
T1 construct: purchased Thermo Fisher Scientific (Life Technologies) SelectScreen
Kind of assay: SelectScreen Z'LYTE. The class given is biochemical. The protocol: The in vitro kinase selectivity of NU5455 was determined using the SelectScreen Broad Assay Panel (Thermo Fisher Scientific) involving activity and binding assays (Supplemental Table 1). […] Class IA PI3Ks were measured using the p85α subunit.
Kinase [ATP] % Assay Kinase [ATP] % Assay Kinase [ATP] % Assay Kinase [ATP] % Assay
DNA-PK Km app 98.3 Z LATS2 n/a 4.7 L KIT D820E n/a 1.3 L GSK3B (GSK3 beta) Km app -2.5 Z
PIK3C3 (hVPS34) Km app 85.9 A PRKCZ (PKC zeta) Km app 4.7 Z GRK1 n/a 1.3 L BMPR2 n/a -2.5 L
PIK3C2B (PI3K-C2 beta) 10 28.9 A FGFR1 Km app 4.7 Z BRSK2 n/a 1.2 L CDC42 BPB (MRCKB) Km app -2.5 Z
SNF1LK2 Km app 26.6 Z MINK1 Km app 4.6 Z NUAK1 (ARK5) Km app 1.2 A AMPK (A2/B2/G2) n/a -2.6 L
HCK Km app 18.0 Z CSF1R (FMS) Km app 4.3 Z CDK9/cyclin K n/a 1.0 L PRKG1 Km app -2.7 Z
NEK2 Km app 17.8 Z CSNK1G3 (CK1 gamma 3) Km app 4.2 Z NUAK2 n/a 1.0 L KIT T670E n/a -2.8 L
ALK Km app 17.3 Z STK32C (YANK3) n/a 4.2 L CDK2/cyclin O n/a 0.9 L ERBB4 (HER4) Km app -2.8 Z
FGFR3 K650M n/a 16.5 L STK22D (TSSK1) Km app 4.2 Z CAMKK2 (CaMKK beta) n/a 0.9 L PLK4 n/a -2.8 L
SIK3 n/a 16.1 L TAOK3 (JIK) n/a 4.2 L FGFR3 Km app 0.9 Z GRK7 Km app -3.0 Z
LYN A Km app 15.2 Z RPS6KA4 (MSK2) Km app 4.2 Z ULK2 n/a 0.9 L MAPKAPK2 Km app -3.1 Z
BMPR1B (ALK6) n/a 14.5 L PTK2B (FAK2) Km app 4.2 Z KIT D816V n/a 0.9 L FGFR4 Km app -3.1 Z
INSRR (IRR) Km app 14.1 Z CLK2 Km app 4.1 Z CAMK1 (CaMK1) 10 0.8 A CASK n/a -3.1 L
PLK2 Km app 14.1 Z STK24 (MST3) Km app 4.1 Z PTK6 (Brk) Km app 0.7 Z GRK5 Km app -3.2 Z
PRKACA (PKA) Km app 14.0 Z CAMK1D (CaMKI delta) Km app 4.1 Z CAMK2B (CaMKII beta) Km app 0.7 Z EGFR (ErbB1) T790M Km app -3.3 Z
EIF2AK2 (PKR) n/a 13.3 L INSR Km app 4.1 Z ACVR1 (ALK2) n/a 0.7 L PAK4 Km app -3.3 Z
PRKX Km app 12.5 Z IRAK1 Km app 4.0 A ABL1 H396P n/a 0.6 L DAPK3 (ZIPK) Km app -3.4 Z
FGR Km app 12.1 Z SRC N1 Km app 3.9 Z MERTK (cMER) A708S n/a 0.6 L RET M918T n/a -3.5 L
CLK1 Km app 11.7 Z SRPK2 Km app 3.9 Z MAPKAPK5 (PRAK) Km app 0.6 Z PRKCQ (PKC theta) Km app -3.7 Z
MARK3 Km app 11.4 Z RPS6KA6 (RSK4) Km app 3.8 Z AKT1 (PKB alpha) Km app 0.5 Z CAMKK1 (CAMKKA) n/a -3.8 L
PDGFRB (PDGFR beta) Km app 11.0 Z GRK6 Km app 3.7 Z NTRK3 (TRKC) Km app 0.4 Z FLT3 D835Y Km app -3.9 Z
PRKCN (PKD3) Km app 10.7 Z PKN1 (PRK1) Km app 3.6 Z ZAP70 Km app 0.3 Z ROCK2 Km app -4.1 Z
STK16 (PKL12) n/a 10.5 L MAP3K8 (COT) 100 3.5 Z CSNK1A1 (CK1 alpha 1) Km app 0.3 Z CHUK (IKK alpha) Km app -4.2 A
FES (FPS) Km app 10.4 Z FLT4 (VEGFR3) Km app 3.5 Z MYLK (MLCK) n/a 0.2 L AXL Km app -4.2 Z
ABL1 Km app 10.4 Z GRK4 Km app 3.5 Z MKNK2 (MNK2) n/a 0.2 L PIM2 Km app -4.3 Z
MUSK Km app 10.3 Z FRK (PTK5) Km app 3.4 Z AMPK (A1/B1/G3) n/a 0.2 L PAK1 Km app -4.4 Z
MAPK1 (ERK2) Km app 10.1 Z FYN A n/a 3.3 L MAP3K2 (MEKK2) n/a 0.1 L BMPR1A (ALK3) n/a -4.4 L
BRAF 100 9.9 Z CDK1/cyclin A2 n/a 3.3 L CDK8/cyclin C n/a 0.1 L STK4 (MST1) Km app -4.4 Z
IGF1R Km app 9.7 Z KIT V559D T670I n/a 3.1 L MARK2 Km app 0.1 Z PRKCH (PKC eta) Km app -4.6 Z
MAPK14 (p38 alpha) Km app 9.7 Z SPHK2 10 3.1 A ICK n/a 0.0 L SGKL (SGK3) Km app -4.6 Z
LCK Km app 9.6 Z FGFR3 G697C n/a 3.1 L FGFR2 Km app 0.0 Z PI4KB (PI4K beta) Km app -4.7 A
MAPK11 (p38 beta) Km app 9.5 Z RIPK2 n/a 3.1 L AKT2 (PKB beta) Km app 0.0 Z PRKCE (PKC epsilon) Km app -4.9 Z
SRC Km app 9.5 Z PAK6 Km app 3.0 Z EPHB2 Km app -0.1 Z PHKG1 Km app -5.0 Z
CHEK1 (CHK1) Km app 9.3 Z LYN B Km app 3.0 Z TGFBR2 n/a -0.1 L PDGFRA D842V Km app -5.0 Z
CAMK2D (CaMKII delta) Km app 9.3 Z DAPK2 n/a 2.9 L TEK (Tie2) Km app -0.1 Z PRKG2 (PKG2) Km app -5.1 Z
PLK1 Km app 9.2 Z EPHA4 Km app 2.9 Z AURKA (Aurora A) Km app -0.1 Z TYRO3 (RSE) Km app -5.1 Z
RET Y791F Km app 9.2 Z PIK3CG (p110 gamma) Km app 2.9 A KIT D816H n/a -0.2 L TAOK2 (TAO1) Km app -5.1 Z
FLT3 Km app 9.1 Z HIPK1 (Myak) Km app 2.8 Z KIT N822K n/a -0.2 L EPHB4 Km app -5.3 Z
MAPK10 (JNK3) 100 9.0 Z ADRBK2 (GRK3) Km app 2.8 Z PRKACG (PRKAC gamma) n/a -0.2 L AURKC (Aurora C) Km app -5.4 Z
CSNK2A2 (CK2 alpha 2) Km app 8.7 Z STK17B (DRAK2) n/a 2.7 L TEK (TIE2) Y1108F n/a -0.3 L JAK1 Km app -5.7 Z […]

Molecules are shown by their SMILES.

T1 sequence (Q13554 whole entry): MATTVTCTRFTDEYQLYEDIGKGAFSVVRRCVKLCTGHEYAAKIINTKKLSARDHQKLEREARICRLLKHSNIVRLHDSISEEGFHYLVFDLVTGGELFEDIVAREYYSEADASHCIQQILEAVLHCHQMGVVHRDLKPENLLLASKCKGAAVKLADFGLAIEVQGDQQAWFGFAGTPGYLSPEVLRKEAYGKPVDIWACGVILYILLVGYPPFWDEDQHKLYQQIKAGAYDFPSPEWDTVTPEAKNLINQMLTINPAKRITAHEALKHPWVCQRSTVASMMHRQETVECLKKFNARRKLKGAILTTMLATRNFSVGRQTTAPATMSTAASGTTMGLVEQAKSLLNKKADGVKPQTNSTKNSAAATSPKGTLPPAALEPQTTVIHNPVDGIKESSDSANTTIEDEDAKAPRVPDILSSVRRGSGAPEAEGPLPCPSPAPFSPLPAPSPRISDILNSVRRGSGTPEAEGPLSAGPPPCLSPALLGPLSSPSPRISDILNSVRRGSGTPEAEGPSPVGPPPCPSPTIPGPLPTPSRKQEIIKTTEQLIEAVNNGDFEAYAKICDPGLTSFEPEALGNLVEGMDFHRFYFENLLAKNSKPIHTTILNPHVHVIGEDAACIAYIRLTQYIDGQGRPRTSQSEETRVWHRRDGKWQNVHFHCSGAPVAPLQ

For orientation: inhibition means the relative decrease from the control value, in per cent. The low end stands for a response near the control, the high end for a response far below the control. Molecule `CN(C(=O)CN1CCOCC1)c1ccc2sc3c(-c4cccc5c(=O)cc(N6CC7CCC(C6)O7)oc45)cccc3c2c1` [NU5455] had an inhibition at 1 µM of 0.7%.
